In paper PMC7396449, “Biochemical determinants of the IGFBP‐3–hyaluronan interaction” (FEBS Open Bio, 2020):
Ends that are not written are not given here.

Tests used:
[1] = target: binding of biotin‐HA to immobilized IGFBP‐3; assay: ELISA, competition of CD44 with IGFBP-3 for binding HA; parameters: species or system human; settings: for IC50: 10 nM glycosylated IGFBP-3 coated, biotin-HA 100 nM incubated 1 h with CD44 0–1000 nM, mean ± SD of three independent experiments in triplicate, read-out: concentration of CD44 that produced 50% of maximum binding (50% inhibition of biotin-HA binding to IGFBP-3)
Protocol: ELISA was conducted as we reported previously. Nunc MaxiSorp 96‐well flat‐bottom plates (Thermo Fisher, Waltham, MA, USA) were coated with samples as indicated. The plates were incubated overnight at 4 °C on a shaker to allow binding of the samples to the plate wells. After the incubation, the wells were washed 4× with TBST, filled with 400 µL blocking buffer (110 mM KCl, 5 mM NaHCO3, 5 mM MgCl2, 1 mM EGTA, 0.1 mM CaCl2, 20 mM HEPES, 1% BSA, pH 7.4), and incubated overnight at 4 °C on a shaker. The wells were then washed 4× with TBST, and 100 µL of sample at the desired concentration was added to each well before incubating overnight at 4 °C on a shaker. TBST was then used to wash the wells 4× before proceeding in one of two ways: (a) Biotinylated samples were analyzed by adding 100 µL streptavidin–HRP conjugate in TBST (1 : 2500 dilution) to the samples before incubating for 3 h at RT on a shaker, or (b) samples without biotin were analyzed by adding 100 µL TBST containing the primary antibody at the manufacturer's recommendation and incubating for 3 h at RT on a shaker before washing 4× with TBST. The secondary antibody in 100 µL TBST was then added to the samples following the manufacturer's recommendation and incubated for 1 h at RT on a shaker. Plates containing either biotinylated or nonbiotinylated samples were then washed 5× with TBST followed by the addition of 100 µL TMB resulting in a blue color change. The reaction was stopped with 100 µL 2 M H2SO4 after incubating at RT for 0.5–15 min, resulting in a yellow color change that was measured by absorbance at 450 nm. To monitor nonspecific binding, negative control wells on the plates included, for example, bound IGFBP‐3 then adding all components, streptavidin–horseradish peroxidase and TMB, but without addition of biotin‐HN. Some wells were coated with 2.5, 10, 50, 100, 500, and 5000 nM biotin‐HN or biotin‐HA to allow conversion of the OD measurements to concentrations of bound material. Before analysis, the OD from the data was corrected for nonspecific binding by subtracting the mean background absorbance for the negative controls. Typically, in control wells incubated on each plate, the background binding is about 10–15% of the maximum binding seen with addition of biotin‐HN or biotin‐HA or antibodies. Statistical analysis was determined by the GRAPHPAD PRISM 8.4.2 software (San Diego, CA, USA). Data were expressed as the mean ± SD. Three to five independent experiments were carried out in triplicate for each assay condition.
Glycosylated recombinant His‐tagged IGFBP‐3 (Speed BioSystems) and nonglycosylated recombinant IGFBP‐3 (MyBioSource, San Diego, CA, USA) were used as reported earlier. Glycosylated human CD44 recombinant protein was purchased from Sino Biological (Wayne, PA, USA). To cleave N‐linked glycans, the proteins were treated with PNGase F for 4 h at 37 °C under nondenaturing conditions according to the manufacturer's specification. To reduce the proteins and following previous protocols, the purified proteins were reduced with TCEP‐HCl (2.5 mM in PBS/1%BSA for 20 min at 4 °C) and then alkylated by 5 mM NEM for 30 min at 4 °C, to permanently block disulfide bond formation. As control, nonreduced samples treated with only 5 mM NEM were used. […]

[2] = tested on: HFL1 normal human fibroblast cells (CD44-negative); assay: MTT cell viability, HFL1; type: cell-based; settings: protein 50 nM, 48 h, with or without 5F12
Protocol: (§1) HFL1 (ATCC CCL‐153) normal, nontransformed, and nontumorigenic human fibroblast cell line and the human NSCLC cell line, A549 (ATCC CCL‐185), were purchased from the American Type Culture Collection (ATCC, Manassas, VA, USA). Cells were seeded as we reported earlier in 5 mL HyClone Dulbecco's modified Eagle's medium/nutrient mixture F‐12 (DMEM/F12) (GE Healthcare Life Sciences, Pittsburgh, PA, USA), supplemented with 10% Fetalgro bovine growth serum (FBS; RMBIO, Missoula, MT, USA), 50 U·mL^−1 penicillin, and 50 U·mL^−1 streptomycin (Invitrogen Life Technologies, Carlsbad, CA, USA) in 25‐cm^2 tissue culture flasks, and allowed to grow overnight in an incubator at 37 °C, 95% humidity, and 5% CO2. Cells were counted with a hemocytometer after trypan blue staining.
(§2) The MTT reduction assay (Sigma‐Aldrich), used to measure cell viability, was employed as we reported earlier. […] The absorbance was measured at 570 nm in a plate reader. […]
(§3) (A) IGFBP‐3 peptides (50 nM each) were bound to the ELISA plate wells, and then, 200 nM biotin‐HA was added and processed as described in the Materials and methods section. The data were normalized to the control incubated with BSA (control 1), and fold change relative to the control was calculated. […] Cell viability was assessed by the MTT assay. […]

[3] = tested on: A549 human NSCLC cells (CD44-expressing); assay: MTT cell viability, A549; type: cell-based; settings: protein 50 nM, 48 h, with or without 5F12
Protocol: as §1, §2, §3

IGFBP‐3 Glycosylated = target: T1, IGFBP‐3 Glycosylated (Homo sapiens, UniProt P17936); assay: ELISA binding of biotin-HA or biotin-HN to immobilized glycosylated IGFBP-3; settings: glycosylated IGFBP-3 (50 nM) coated; 0–2 μM biotin-ligand, overnight 4 °C; mean ± SD of three independent experiments in triplicate; read-out: concentration of biotin-HA or biotin-HN that produced 50% of maximum binding
T1 construct: We therefore elected to use the full‐length IGFBP‐3 protein to examine the effect of glycosylation; His; purchased Speed BioSystems YCP1009
Protocol: (§4) ELISA was conducted as we reported previously. Nunc MaxiSorp 96‐well flat‐bottom plates (Thermo Fisher, Waltham, MA, USA) were coated with samples as indicated. The plates were incubated overnight at 4 °C on a shaker to allow binding of the samples to the plate wells. After the incubation, the wells were washed 4× with TBST, filled with 400 µL blocking buffer (110 mM KCl, 5 mM NaHCO3, 5 mM MgCl2, 1 mM EGTA, 0.1 mM CaCl2, 20 mM HEPES, 1% BSA, pH 7.4), and incubated overnight at 4 °C on a shaker. The wells were then washed 4× with TBST, and 100 µL of sample at the desired concentration was added to each well before incubating overnight at 4 °C on a shaker. TBST was then used to wash the wells 4× before proceeding in one of two ways: (a) Biotinylated samples were analyzed by adding 100 µL streptavidin–HRP conjugate in TBST (1 : 2500 dilution) to the samples before incubating for 3 h at RT on a shaker, or (b) samples without biotin were analyzed by adding 100 µL TBST containing the primary antibody at the manufacturer's recommendation and incubating for 3 h at RT on a shaker before washing 4× with TBST. […] The reaction was stopped with 100 µL 2 M H2SO4 after incubating at RT for 0.5–15 min, resulting in a yellow color change that was measured by absorbance at 450 nm. […] Statistical analysis was determined by the GRAPHPAD PRISM 8.4.2 software (San Diego, CA, USA). […]

IGFBP‐3 Nonglycosylated = target: T2, IGFBP‐3 Nonglycosylated (Homo sapiens, UniProt P17936); assay: ELISA binding of biotin-HA or biotin-HN to immobilized nonglycosylated IGFBP-3; settings: nonglycosylated IGFBP-3 (50 nM) coated; 0–2 μM biotin-ligand, overnight 4 °C; mean ± SD of three independent experiments in triplicate; read-out: concentration of biotin-HA or biotin-HN that produced 50% of maximum binding
T2 construct: We therefore elected to use the full‐length IGFBP‐3 protein to examine the effect of glycosylation; purchased MyBioSource MBS142177
Protocol: as §4

[4] = target: T3, IGFBP‐3 Nonglycosylated/Reduced (Homo sapiens, UniProt P17936); assay: ELISA binding of biotin-HA or biotin-HN to immobilized nonglycosylated/reduced IGFBP-3; settings: nonglycosylated/reduced (TCEP, NEM) IGFBP-3 (50 nM) coated; 0–2 μM biotin-ligand, overnight 4 °C; mean ± SD of three independent experiments in triplicate; read-out: concentration of biotin-HA or biotin-HN that produced 50% of maximum binding
T3 construct: We therefore elected to use the full‐length IGFBP‐3 protein to examine the effect of glycosylation; purchased MyBioSource MBS142177
Protocol: as §4

[5] = target: T4, IGFBP‐3 Glycosylated/Reduced (Homo sapiens, UniProt P17936); assay: ELISA binding of biotin-HA or biotin-HN to immobilized glycosylated/reduced IGFBP-3; settings: glycosylated/reduced (TCEP, NEM) IGFBP-3 (50 nM) coated; 0–2 μM biotin-ligand, overnight 4 °C; mean ± SD of three independent experiments in triplicate; read-out: concentration of biotin-HA or biotin-HN that produced 50% of maximum binding
T4 construct: We therefore elected to use the full‐length IGFBP‐3 protein to examine the effect of glycosylation; His; purchased Speed BioSystems YCP1009
Protocol: as §4

[6] = tested on: IGFBP‐3 interaction with importin‐β1; settings: in vitro; cited from earlier work
From the text: (§5) Humanin (HN), first discovered by the Nishimoto laboratory, is a mitochondrial‐derived peptide known to bind with high affinity and specificity to the 18‐amino acid residue (215–232) heparin‐binding domain of IGFBP‐3 [54] that also binds HA.

amyloid‐β = settings: aggregation induced by acetylcholinesterase; cited from earlier work
From the text: as §5

[7] = after reduction; cited from earlier work
From the text: We next tested whether reduction of CD44 affects its ability to compete with IGFBP‐3 for binding HA. […] Reduction of this bond inhibited HA‐CD44 interaction in vitro, and the ability of cells to adhere to HA‐coated surfaces was blocked by pretreatment with reducing agents. Moreover, reductio ...

T4 sequence (P17936 28-291): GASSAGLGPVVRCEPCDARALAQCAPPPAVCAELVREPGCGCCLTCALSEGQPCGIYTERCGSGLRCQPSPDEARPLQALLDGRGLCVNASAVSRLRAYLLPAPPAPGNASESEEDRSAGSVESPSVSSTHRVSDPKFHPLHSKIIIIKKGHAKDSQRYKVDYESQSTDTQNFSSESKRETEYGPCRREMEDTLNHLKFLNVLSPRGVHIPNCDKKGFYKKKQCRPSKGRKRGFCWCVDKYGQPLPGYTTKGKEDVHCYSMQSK
T1 sequence (P17936 28-291): as above
T2 sequence (P17936 28-291): as above
T3 sequence (P17936 28-291): as above

## CD44 Nonglycosylated/Reduced: PNGase F treated CD44, reduced with TCEP-HCl then alkylated by NEM
[1]
  IC50: 0.176 ± 0.037 µM

## nonglycosylated IGFBP‐3 protein: nonglycosylated recombinant IGFBP-3 (MyBioSource)
[2]
  HFL1 cell viability, IGFBP-3 proteins (in words): lack of effect
[3]
  A549 cell viability, IGFBP-3 proteins (in words): a comparable decrease in A549 cell viability

## CD44 Nonglycosylated: human recombinant CD44 treated with PNGase F to cleave N-linked glycans
[1]; 10 nM IGFBP-3 coated, biotin-HA 100 nM
  ability of CD44 to block HA-IGFBP-3 interaction (in words): more efficient at inhibiting the binding of biotin‐HA to immobilized IGFBP‐3 than glycosylated CD44
[1]
  IC50: 0.009 ± 0.002 µM

## CD44 Glycosylated/Reduced: glycosylated CD44, reduced with TCEP-HCl then alkylated by NEM
[1]
  IC50: 0.21 ± 0.041 µM

## Biotin‐HN: biotin-HN (B-018-26, UniProt Q8IVG9), Phoenix Pharmaceuticals; biotinylated humanin
IGFBP‐3 Glycosylated
  EC50: 0.104 ± 0.014 µM
IGFBP‐3 Nonglycosylated
  EC50: 0.092 ± 0.016 µM
[4]
  EC50: 0.096 ± 0.012 µM
[5]
  EC50: 0.098 ± 0.016 µM

## glycosylated IGFBP‐3 protein: Glycosylated recombinant His-tagged IGFBP-3 (Speed BioSystems)
[2]
  HFL1 cell viability, IGFBP-3 proteins (in words): lack of effect
[3]
  A549 cell viability, IGFBP-3 proteins (in words): a comparable decrease in A549 cell viability

## HN: mitochondrial-derived peptide binding the 18-amino acid residue (215–232) heparin-binding domain of IGFBP-3 (MAPRGFSCLLLLTSEIDLPVKRRA-NH2; UniProt Q8IVG9 1-24, looked up)
[6]
  effect on IGFBP-3–importin-β1 interaction (in words): blocks its interaction with importin‐β1 in vitro
amyloid‐β
  effect on amyloid-β aggregation (in words): aggregation of amyloid‐β induced by acetylcholinesterase is blocked by the presence of HN

## CD44 Glycosylated: Glycosylated human CD44 recombinant protein (Sino Biological)
[1]
  IC50: 0.128 ± 0.024 µM

## recombinant soluble CD44: recombinant soluble CD44 of ref 47
[7]
  effect of reduction on ability of CD44 to bind HA (in words): inhibit its ability to bind HA
